Test results as given in paper PMC8145986, “In Vitro Enzymatic and Kinetic Studies, and In Silico Drug-Receptor Interactions, and Drug-Like Profiling of the 5-Styrylbenzamide Derivatives as Potential Cholinesterase and β-Secretase Inhibitors with Antioxidant Properties” (Antioxidants, 2021).

Key:
AChE = target: T1, AChE (Homo sapiens, UniProt P22303); assay: biochemical; settings: mean ± SD of three independent experiments
T1 construct: purchased BioLegend (via Biocom Africa (Pty) Ltd.)
Description: The melting point values of the test compounds were recorded on a Thermocouple digital melting point apparatus (Mettler Toledo LLC, Columbus, OH, USA). The infrared (IR) spectra were recorded using the thin-film method on a Bruker VERTEX 70 FT-IR Spectrometer (Bruker Optics, Billerica, MA, USA) equipped with an ATR (diamond attenuated total reflectance) accessory. Merck kieselgel 60 (0.063–0.200 mm) (Merck KGaA, Frankfurt, Germany) was used as a stationary phase for column chromatography. The ^1H-NMR and ^13C-NMR spectra of the prepared compounds were obtained as deuterated dimethyl sulfoxide ((CD3)2SO) solutions using Agilent 500 MHz NMR spectrometer (Agilent Technologies, Oxford, UK) operating at 500 MHz and 125 MHz for ^1H and ^13C, respectively. The chemical shifts are quoted relative to tetramethylsilane (TMS) used as an internal reference standard (δ = 0.00 ppm) or a residual protonated solvent. The high-resolution mass spectra were recorded at an ionization potential of 70 eV using Micromass Autospec-TOF (double focusing high resolution) instrument (Waters Corp., Milford, MA, USA). The synthesis and analytical data for 2-amino-5-iodobenzamide (1) have been reported in our previous study. Recombinant human AChE (BioLegend) and BChE (Cloud-Clone Corp.) were purchased via Biocom Africa (Pty) Ltd. (Centurion, Pretoria, South Africa).
AChE and BChE were used to determine cholinesterase activities spectrophotometrically using […] as substrates, respectively, following a modification of the Ellman’s method, as described in our previous study, and the reactions were performed in triplicate at 37 °C in a 96-well plate. […] A multi-channel pipette was used for the addition of reagents to the wells.
To each well of a 96-well plate, 8.0 μL solution of the test compound, 2.0 μL of AChE (0.04 mg/mL), and 70 μL of Tris buffer (C4H11NO3, 50 mM, pH 7.7) were added sequentially. The assay mixture was pre-incubated for 30 min at room temperature, which was followed by the addition of 10 μL of 5,5′-dithiobis-(2-nitrobenzoic acid) (DTNB, 3 mM in Tris buffer, 50 mM, pH 7.7) and 10 μL of […] (AChI, 5 mM in tris buffer, 50 mM, pH 7.7) to each well to initiate the reaction. […] The average values obtained from the absorbance readings were used to determine the IC50 and standard deviation values using the Graph Pad Prism (version 5.0, GraphPad software Inc., San Diego, CA, USA).

[1] = DPPH radical scavenging assay; settings: read-out: IC50 (SD) DPPH
Description: The antioxidant activities of the test compounds against ascorbic acid (Sigma Aldrich, Saint Louis, MO, USA) as a positive control were evaluated using a 2,2-diphenyl-1-picrylhydrazyl (DPPH) radical scavenging assay developed by Zhu et al., as described in our previous study. Duplicate solutions (20 μL) of the test compounds and ascorbic acid in DMSO (final concentrations: 5, 10, 25, 50, and 100 μM) were added into each designated well of a 96-well plate. A solution of DPPH (0.20 mM) (20 μL) in methanol was added to each well, and the 96-well plate was wrapped with aluminium foil and incubated in the dark for 45 min. Five absorbance readings were recorded at 512 nm using a Varioskan flash microplate spectrophotometer reader. The average values obtained from the absorbance readings were used to determine the IC50 and standard deviation values.

BChE = target: T2, BChE (Homo sapiens, UniProt P06276); assay: Enzyme kinetic study against BChE (Lineweaver-Burk and Dixon plots); type: biochemical
T2 construct: purchased Cloud-Clone Corp. (via Biocom Africa (Pty) Ltd.)
Description: The AChE and BChE enzyme kinetic studies were performed in triplicate in a 96-well plate following a procedure described in our previous study. Varying concentrations of 2a or 3c (0, 2.5, 3.5, and 5 μM) and AChI or BChI (0.1, 0.5, 2.5, and 5 mM) were used for the kinetic assays. The absorbances were measured after every 1 s for 10 s at a wavelength of 412 nm using a microplate spectrophotometer reader. The Lineweaver–Burk plots (plot of the inverse of velocity (1/v) against the inverse of the substrate concentration (1/[S])) were constructed.

[2] = Metal chelation study by UV-vis spectrometry; type: physicochemical; settings: room temperature
Description: The metal chelating ability of compounds 2a and 3b toward Cu^2+ and Zn^2+ was evaluated by ultraviolet–visible (UV–Vis) spectrometry. A solution of the test compound in methanol (30 μM, final concentration) alone or in the presence of CuCl2 or ZnCl2 (30 μM, final concentration) was stirred at RT for 30 min. The absorption spectra were recorded at room temperature on a PerkinElmer UV/Vis spectrometer (Perkin Elmer, Inc., Midrand, Johannesburg, South Africa) at wavelengths ranging from 200 to 1200 nm.
The ability of compound 2a to chelate Cu^2+ or Zn^2+ was assessed using a UV–vis spectrophotometric assay with a wavelength in the region of 200–1200 nm. The absorption spectrum of 2a (Figure 2) acquired in methanol at room temperature is characterized by four discernible absorption bands, around λ 300, 500, 690, and 1000 nm, respectively. These bands are reduced to two distinct bands of different intensities in the presence of either CuCl2 or ZnCl2. […] A bathochromic shift of the band found around 500 nm in the spectrum of 2a to around 580 nm in the presence of ZnCl2 occurred with no broadening. 2-Aminobenzamide is known to bind the Cu(II) ion through the amino-N and amido-O atoms.

[3] = Cytotoxicity (MTT assay) on Vero cells; settings: monkey, Vero cells (normal monkey kidney cells)
Description: The cytotoxicity activity of the compounds was evaluated using the 3-(4,5-dimethylthiazol-2-yl)-2,5-diphenyltetrazolium bromide (MTT) assay following a modification of a method by Mosmann. Normal monkey kidney cells (Vero cells) and adeno-carcinomic human epithelial cells (A549 cells) were maintained in Dulbecco’s modified Eagle’s medium (DMEM, Gibco) supplemented with 10% fetal bovine serum (FBS) and 1% penicillin/streptomycin in culture flasks and incubated at 37 °C in 5% CO2. […] Cells were seeded at 1 × 10^5 cells/well and incubated overnight to allow cell attachment. After 24 h, treatments were administered with different concentrations (0, 2.5, 5, 10, 25, 50, and 100 μM) of the compounds and doxorubicin (positive control). After 24 h of incubation, 20 μL of the MTT solution (5 mg/mL) was added in all the wells, which was followed by 4 h of incubation.

T2 sequence (P06276 29-602): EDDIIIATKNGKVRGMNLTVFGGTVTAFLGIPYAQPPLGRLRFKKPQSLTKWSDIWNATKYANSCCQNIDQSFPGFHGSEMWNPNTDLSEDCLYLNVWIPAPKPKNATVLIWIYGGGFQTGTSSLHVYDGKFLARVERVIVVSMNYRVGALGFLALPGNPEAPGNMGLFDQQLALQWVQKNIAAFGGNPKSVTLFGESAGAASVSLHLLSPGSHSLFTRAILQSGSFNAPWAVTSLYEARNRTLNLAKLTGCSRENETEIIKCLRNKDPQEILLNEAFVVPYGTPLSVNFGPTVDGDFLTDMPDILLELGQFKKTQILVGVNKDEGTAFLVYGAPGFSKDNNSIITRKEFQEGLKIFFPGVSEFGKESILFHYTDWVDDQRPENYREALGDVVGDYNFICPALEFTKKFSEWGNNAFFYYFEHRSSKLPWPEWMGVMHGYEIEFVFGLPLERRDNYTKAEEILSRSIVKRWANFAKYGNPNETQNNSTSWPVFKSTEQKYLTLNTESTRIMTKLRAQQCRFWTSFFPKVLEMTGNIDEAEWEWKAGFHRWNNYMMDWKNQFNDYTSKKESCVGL
T1 sequence (P22303 32-614): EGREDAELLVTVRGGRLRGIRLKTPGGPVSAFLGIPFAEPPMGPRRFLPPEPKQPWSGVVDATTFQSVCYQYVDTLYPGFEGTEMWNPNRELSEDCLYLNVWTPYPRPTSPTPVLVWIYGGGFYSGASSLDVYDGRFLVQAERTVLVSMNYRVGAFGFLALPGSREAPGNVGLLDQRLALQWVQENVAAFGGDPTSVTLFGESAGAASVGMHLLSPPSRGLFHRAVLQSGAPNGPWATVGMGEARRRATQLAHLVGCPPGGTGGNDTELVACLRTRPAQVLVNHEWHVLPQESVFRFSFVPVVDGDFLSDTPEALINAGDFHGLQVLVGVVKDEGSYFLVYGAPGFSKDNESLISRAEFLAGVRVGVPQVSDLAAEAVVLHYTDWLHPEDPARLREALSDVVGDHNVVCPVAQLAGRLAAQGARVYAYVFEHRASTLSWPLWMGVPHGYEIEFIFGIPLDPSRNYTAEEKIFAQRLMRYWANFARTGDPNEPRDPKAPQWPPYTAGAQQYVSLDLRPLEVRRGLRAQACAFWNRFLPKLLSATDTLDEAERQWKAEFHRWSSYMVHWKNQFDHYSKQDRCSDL

With `NC(=O)c1cc(/C=C/c2ccccc2)ccc1N` [Compound 2a, (E)-2-Amino-5-styrylbenzamide] the IC50 (AChE) was 2.3 ± 0.11 µM, the IC50 [1] was 5.8 ± 0.32 µM and the “mode of inhibition BChE” value (BChE) was “mixed mode”. The Ki (BChE; read-out: Ki (Dixon plot) BChE) was 2 µM, the “chelation of Cu2+” value ([2]; 30 μM compound and 30 μM CuCl2 in methanol) was “selective for Cu (II) ion” and the “chelation of Zn2+” value ([2]; 30 μM compound and 30 μM ZnCl2 in methanol) was “relatively poor chelating ability”. It also gave an IC50 at 24 h [3] of 163 ± 0.55 µM.
